Data as given in patent EP3345917A1, “ANTIPROTOZOAL COMPOUNDS” (Bacoba AG, priority 2017, dated 2018).
pIC50: −log10 of the molar value. Non-standard residues stand in square brackets, D forms with d. Residues, ends and D or L forms follow the SMILES beside them. *: point of attachment. NH((S)CH(Me)CH2NMe2) = C[C@@H](CN(C)C)N*; NH(1-CH2NMe2-cBu) = CN(C)CC1(N*)CCC1; Gly(octyl) = CCCCCCCC[C@H](N)C(=O)O; Hexanoyl = CCCCCC(=O)*; Aib = CC(C)(N)C(=O)O; βAla = NCCC(=O)O

How the values were obtained:
[1] = tested on: Trypanosoma brucei rhodesiense (STIB 900 strain); test: Alamar Blue assay against Trypanosoma brucei rhodesiense grown in axenic medium; assay type: cell-based; details: In vitro inhibition, read-out: T.b.rhod.
Method: (§1) Tests were done in triplicate.
Trypanosoma brucei rhodesiense (STIB 900) were grown in axenic medium as described by Baltz et al. (1985) The samples were tested using the Alamar Blue assay protocol (Baltz T et al. EMBO J 1985; 4:1273-1277) to determine the 50% inhibitory concentration (IC50). […] Melarsoprol (Arsobal®, Sanofi-Aventis, Switzerland) was used as a reference drug (IC50= 0.03 ± 0.01 µM). Its purity was over 95 %, as was certified by the supplier. The IC50 values were calculated by using Softmax Pro software (Molecular Devices Cooperation, Sunnyvale, CA).

[2] = Cytotoxicity assay on L6-cells (Alamar Blue); details: rat, Cytotox L6, Cytotoxicity against rat myoblast cells (L6)
[3] = tested on: Plasmodium falciparum; test: 3H-hypoxanthine incorporation assay against Plasmodium falciparum; assay type: cell-based; details: In vitro inhibition, read-out: P.falc NF5
Method: as §1
IC50 values were calculated by linear interpolation.

[4] = tested on: Trypanosoma cruzi trypomastigote forms (Tulahuen strain); test: Intracellular Trypanosoma cruzi assay in L6-cells, beta-galactosidase/CPRG readout; assay type: cell-based; details: In vitro inhibition, read-out: T.cruzi.
Method: as §1
Trypanosoma cruzi trypomastigote forms (Tulahuen strain C2C4 containing β-galactosidase (Lac Z) gene) were cultured as described by Buckner et al. (Buckner FS et al. Antimicrob Agents Ch1996; 40: 2592-2597) in rat myoblast cells (L6-cells). […] After incubation, the substrate chlorophenyl red β-D-galactopyranoside agent CPRG/Nonident was added to all wells and a color change was developed within 2 to 6 h. The plates were read photometrically at 540 nm (Molecular Devices). Data were evaluated and IC50 values calculated using Softmax Pro software (Molecular Devices).

[5] = tested on: Axenically grown Leishmania donovani amastigotes (strain MHOM/ET/67/L82); test: Axenic Leishmania donovani amastigote resazurin assay; assay type: cell-based; details: In vitro inhibition, read-out: L.don. ax
Method: as §1
Axenically grown Leishmania donovani amastigotes (strain MHOM/ET/67/L82) were grown and tests were done as previously described using the resazurin assay (Räz B et al. Acta Tropica 1997, 68:139-147). The plates were developed for 2-4 hours and read on a Spectramax Gemini XS micro plate fluorometer (Molecular Devices Cooperation) using an excitation wavelength of 536 nm and emission wavelength of 588 nm. Fluorescence development was measured and expressed as percentage of the negative control. […] Data were transferred to the graphic programme Softmax Pro (Molecular Devices), with which IC50 values were calculated.

SMILES | pIC50 [1] | IC50 at 70 h [2] | pIC50 [3] | pIC50 [4] | pIC50 [5]
CCCCCC(=O)N1CCC[C@H]1C(=O)N[C@@H](CCCCNC(C)=O)C(=O)N[C@@H](CC(C)C)C(=O)NC(C)(C)C(=O)N[C@@H](CC(C)C)C(=O)N[C@@H](CC(C)C)C(=O)NC(C)(C)C(=O)NC(C)(C)C(=O)NCCC(=O)N[C@@H](C)CN(C)C [Compound 5766, (2S)-N-[(1S)-1-[(1-{[(1S)-1-{[(1S)-1-{[1-({1-[(2-{[(2S)-1-(dimethylamino)propan-2-yl]carbamoyl}ethyl)carbamoyl]-1-methylethyl}carbamoyl)-1-methylethyl]carbamoyl}-3-methylbutyl]carbamoyl}-3-methylbutyl]carbamoyl}-1-methylethyl)carbamoyl]-3-methylbutyl]-6-acetamido-2-{[(2S)-1-hexanoylpyrrolidin-2-yl]formamido}hexanamide] (Hexanoyl-PK(Ac)L[Aib]LL[Aib][Aib][βAla]-{NH((S)CH(Me)CH2NMe2)}) | 8.52 | 4870 nM | 6.87 | 5.42 | 6.12
CCCCCCCC[C@H](NC(=O)[C@@H]1CCCN1C(=O)CCCCC)C(=O)N[C@@H](CC(C)C)C(=O)NC(C)(C)C(=O)N[C@@H](CC(C)C)C(=O)N[C@@H](CC(C)C)C(=O)NC(C)(C)C(=O)NC(C)(C)C(=O)NCCC(=O)NC1(CN(C)C)CCC1 [Compound 5882, (2S)-N-[(1S)-1-[(1-{[(1S)-1-{[(1S)-1-({1-[(1-{[2-({1-[(dimethylamino)methyl]cyclobutyl}carbamoyl)ethyl]carbamoyl}-1-methylethyl)carbamoyl]-1-methylethyl}carbamoyl)-3-methylbutyl]carbamoyl}-3-methylbutyl]carbamoyl}-1-methylethyl)carbamoyl]-3-methylbutyl]-2-{[(2S)-1-hexanoylpyrrolidin-2-yl]formamido}decanamide] (Hexanoyl-P[Gly(octyl)]L[Aib]LL[Aib][Aib][βAla]-{NH(1-CH2NMe2-cBu)}) | 4.69 | 44.1 nM | 9.05 | 4.37 | 4.33
CCCCCCCC[C@H](NC(=O)[C@@H]1CCCN1C(=O)/C=C/[C@@H](C)CC)C(=O)N[C@@H](CO)C(=O)NC(C)(C)C(=O)N[C@@H](CC(C)C)C(=O)N[C@@H](CC(C)C)C(=O)NC(C)(C)C(=O)NC(C)(C)C(=O)NCCC(=O)N[C@@H](C)CN(C)C (stereo in doubt) [Compound 5521, (2S)-N-[(1S)-1-[(1-{[(1S)-1-{[(1S)-1-{[1-({1-[(2-{[(2S)-1-(dimethylamino)propan-2-yl]carbamoyl}ethyl)carbamoyl]-1-methylethyl}carbamoyl)-1-methylethyl]carbamoyl}-3-methylbutyl]carbamoyl}-3-methylbutyl]carbamoyl}-1-methylethyl)carbamoyl]-2-hydroxyethyl]-2-{[(2S)-1-[(2E,4S)-4-methylhex-2-enoyl]pyrrolidin-2-yl]formamido}decanamide] | 8.89 | 1650 nM | 8.07 | 6.09 | 8.44
CCCCCCCC[C@H](NC(=O)[C@@H]1CCCN1C(=O)CCCCC)C(=O)N[C@H](C(=O)NC(C)(C)C(=O)NC(C)(C)C(=O)NCCC(=O)N[C@@H](C)CN(C)C)[C@@H](C)O [Compound 5594, (2S)-N-[(1S)-1-[[(1S,2R)-1-[[2-[[2-[[3-[[(1S)-2-(dimethylamino)-1-methyl-ethyl]amino]-3-oxo-propyl]amino]-1,1-dimethyl-2-oxo-ethyl]amino]-1,1-dimethyl-2-oxo-ethyl]carbamoyl]-2-hydroxy-propyl]carbamoyl]nonyl]-1-hexanoyl-pyrrolidine-2-carboxamide] (Hexanoyl-P[Gly(octyl)]T[Aib][Aib][βAla]-{NH((S)CH(Me)CH2NMe2)}) | 5.65 | 6020 nM | 5.63 | 5.06 | 6.24
